The values below come from patent US20100298300A1, “TRIAZOLOPYRAZINE COMPOUNDS USEFUL FOR THE TREATMENT OF DEGENERATIVE & INFLAMMATORY DISEASES” (priority 2006, published 2010).

Experiment [1] has as its system MMP1 expression by activated primary synovial fibroblasts. Briefly: 'MMP assay': MMP1 expression by complex trigger activated synovial fibroblasts (MMP1 ELISA). It counts as cell-based. The settings on record: Homo sapiens, Fibroblast; Table 4; RASFs, complex trigger, 48 hrs, MMP1 ELISA.
A further experiment concerns the target T1, MAPKAPK5 (Homo sapiens, UniProt Q8IW41).
T1 sequence (Q8IW41 1-471 isoform Q8IW41-2): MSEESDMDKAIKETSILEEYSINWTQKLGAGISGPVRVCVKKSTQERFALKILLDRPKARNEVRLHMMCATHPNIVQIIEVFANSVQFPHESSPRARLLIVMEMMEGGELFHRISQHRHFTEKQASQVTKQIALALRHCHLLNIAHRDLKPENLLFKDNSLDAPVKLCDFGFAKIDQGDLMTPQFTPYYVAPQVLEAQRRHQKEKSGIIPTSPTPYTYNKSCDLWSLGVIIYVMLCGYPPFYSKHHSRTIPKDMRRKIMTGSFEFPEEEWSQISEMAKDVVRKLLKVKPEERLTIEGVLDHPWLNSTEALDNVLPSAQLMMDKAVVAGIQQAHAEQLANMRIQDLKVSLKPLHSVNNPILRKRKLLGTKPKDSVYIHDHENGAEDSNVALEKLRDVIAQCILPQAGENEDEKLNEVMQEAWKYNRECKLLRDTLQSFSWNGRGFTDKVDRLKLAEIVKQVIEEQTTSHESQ
Put plainly: MAPKAP-K5 assay (FlashPlate kinase assay).

For orientation: EC50 means the midpoint of the concentration-response curve. As usually defined, the IC50 is the concentration that gives 50% inhibition. Higher therefore signals lower potency.

Take `O=C(NCC1CCCCC1)c1cccc(Nc2ncc(-c3cn[nH]c3)n3ncnc23)c1` [Compound 130]: the EC50 in experiment [1] is greater than 1000 nM. For the same compound, the IC50 against MAPKAPK5 is greater than 1000 nM.
`O=C(NCc1ccc(O)cc1)c1cccc(Nc2ncc(-c3cn[nH]c3)n3ncnc23)c1` [Compound 131, N-(4-Hydroxybenzyl) 3-[5-(1H-pyrazol-4-yl)-[1,2,4]triazolo[1,5-a]pyrazin-8-ylamino]benzamide]: in experiment [1], the EC50 is 501 to 1000 nM. The compound further gave a 50% inhibitory concentration (IC50) against MAPKAPK5 greater than 1000 nM.
The compound `COc1cc(Nc2ncc(-c3csc(C(N)=O)c3)n3ncnc23)ccc1C(=O)NCc1ccccc1` [Compound 132] registered an EC50 in experiment [1] greater than 1000 nM. The same compound gave an IC50 at MAPKAPK5 greater than 1000 nM.
In turn, `NC(=O)c1cc(-c2cnc(Nc3ccc(NC(=O)c4ccccc4)nc3)c3ncnn23)cs1` [Compound 133] had an EC50 in experiment [1] greater than 1000 nM. The IC50 against MAPKAPK5 was greater than 1000 nM.
`CN(Cc1ccccc1)C(=O)c1cccc(Nc2ncc(-c3cn[nH]c3)n3ncnc23)c1` [Compound 134, N-Benzyl-N-methyl 3-[5-(1H-pyrazol-4-yl)-[1,2,4]triazolo[1,5-a]pyrazin-8-ylamino]benzamide] registered an EC50 in experiment [1] of 501 to 1000 nM. Besides, on MAPKAPK5, the IC50 was greater than 1000 nM.
The corresponding values for `CNC(=O)C1CCN(C(=O)c2ccc(Nc3ncc(-c4cn[nH]c4)n4ncnc34)cc2)CC1` [Compound 136] are greater than 1000 nM and 501 to 1000 nM.
In experiment [1], `O=C(NCCc1ccncc1)c1ccc(Nc2ncc(-c3cn[nH]c3)n3ncnc23)cc1` [Compound 137] showed an EC50 greater than 1000 nM. For the same compound, on MAPKAPK5, the IC50 lay in the range of 501 to 1000 nM.
In turn, `CCN1CCN(C(=O)c2ccc(Nc3ncc(-c4cn[nH]c4)n4ncnc34)cc2)CC1` [Compound 138] gave an EC50 in experiment [1] greater than 1000 nM. Besides, on MAPKAPK5, the IC50 lay within 501 to 1000 nM.
For `CCN1CCCC1CNC(=O)c1ccc(Nc2ncc(-c3cn[nH]c3)n3ncnc23)cc1` (stereo not drawn) [Compound 139], in that order: greater than 1000 nM and 501 to 1000 nM.
The corresponding values for `O=C(c1ccc(Nc2ncc(-c3cn[nH]c3)n3ncnc23)cc1)N1CC=CC1` [Compound 140] are greater than 1000 nM and 501 to 1000 nM.
On to `CCOCCN1CCN(C(=O)c2ccc(Nc3ncc(-c4cn[nH]c4)n4ncnc34)cc2)CC1` [Compound 141], for which, in experiment [1], the EC50 was greater than 1000 nM. This compound yielded an IC50 against MAPKAPK5 of 501 to 1000 nM.
For `O=C(NCC1CC1)c1ccc(Nc2ncc(-c3cn[nH]c3)n3ncnc23)cc1` [Compound 142], in that order: greater than 1000 nM and greater than 1000 nM.
For `CC(=O)N(C)C1CCN(C(=O)c2ccc(Nc3ncc(-c4cn[nH]c4)n4ncnc34)cc2)C1` (stereo not drawn) [Compound 143], in that order: greater than 1000 nM and 501 to 1000 nM.
For `O=C(c1ccc(Nc2ncc(-c3cn[nH]c3)n3ncnc23)cc1)N1CCN(c2ccccc2)CC1` [Compound 145], in that order: greater than 1000 nM and 501 to 1000 nM.
Regarding `COC[C@@H]1CCCN1C(=O)c1ccc(Nc2ncc(-c3cn[nH]c3)n3ncnc23)cc1` [Compound 146], in experiment [1], the EC50 was greater than 1000 nM. Also, the IC50 against MAPKAPK5 was greater than 1000 nM.
Compound `O=C(c1ccc(Nc2ncc(-c3cn[nH]c3)n3ncnc23)cc1)N1CCN(c2ccccn2)CC1` [Compound 148] had an EC50 in experiment [1] greater than 1000 nM. The IC50 against MAPKAPK5 was 501 to 1000 nM.
As for `CCC(COC)NC(=O)c1ccc(Nc2ncc(-c3cn[nH]c3)n3ncnc23)cc1` (stereo not drawn) [Compound 149], in experiment [1], the EC50 is greater than 1000 nM. On MAPKAPK5, this compound came in with an IC50 greater than 1000 nM.
`COCCN1CCN(C(=O)c2ccc(Nc3ncc(-c4cn[nH]c4)n4ncnc34)cc2)CC1` [Compound 150]: in experiment [1], the EC50 is greater than 1000 nM. This compound returned an IC50 on MAPKAPK5 of 501 to 1000 nM.
The corresponding values for `O=C(NCCc1ccc(O)cc1)c1ccc(Nc2ncc(-c3cn[nH]c3)n3ncnc23)cc1` [Compound 151] are greater than 1000 nM and greater than 1000 nM.
For `CCC(C)N1CCN(C(=O)c2ccc(Nc3ncc(-c4cn[nH]c4)n4ncnc34)cc2)CC1` (stereo not drawn) [Compound 152], in that order: greater than 1000 nM and 501 to 1000 nM.
For `CN1CCN(c2ccc(NC(=O)c3ccc(Nc4ncc(-c5cn[nH]c5)n5ncnc45)cc3)cc2)CC1` [Compound 153], in that order: greater than 1000 nM and 501 to 1000 nM.
